The subject of one assay is 4T1. Put plainly: CCK-8 cell growth inhibition, 4T1. Format: cell-based. The note with it: Mus musculus, 4T1; breast cancer; CCK-8 assay, 72-h incubation. As for the experimental part: (§1) In vitro anticancer screening of all newly synthesized compounds towards human solid tumor cells, cervical (SiHa) and ovarian (SKOV3) cancer cell lines, was carried out by standard CCK-8 assay with cisplatin as the positive control, as cisplatin is one of the most used chemotherapy drugs. […] The compound was further evaluated in a dose response study against a panel of solid tumor cells, including cervical cancer cell lines (SiHa and HeLa), ovarian cancer cell lines (SKOV3 and OVCAR-5), breast cancer cell lines (4T1 and MCF-7), lung cancer cell lines (A549 and H460) to test cytotoxic activity. The IC50 values were summarized in Table 2, including the cytotoxic activity of the cisplatin used as reference compound.
(§2) The viability of cells as determined using the CCK8 assay method. Cells were seeded (2000–3000 cells per well) in 96-well plates. After incubation for 24 h in serum-containing media, the cells were treated with drugs at different concentrations diluted with culture medium for 72 h at 37 °C with a 5% CO2 atmosphere. […] Finally, absorbance values of test wells (AS), control wells (AC) and blank wells (Ab) at 450 nm were read using the Microplate Reader (Promega, WI). Inhibition ratios were calculated as follows: [(AC − AS)/ (AC−Ab)] × 100%. IC50 values were calculated using GraphPad software.

Another assay has as its system OVCAR-5. In words: CCK-8 cell growth inhibition, OVCAR-5. Format: cell-based, human. The conditions noted are these: Homo sapiens, OVCAR-5; ovarian cancer; CCK-8 assay, 72-h incubation. As for the experimental part:
as §1, §2
A general note: Tetrazolium assays rely on reduction of a dye to a coloured formazan, in cell work by metabolically active cells.

The subject of a further assay is SKOV3. Put plainly: CCK-8 cell growth inhibition, SKOV3. The note with it: Homo sapiens, SK-OV-3; CCK-8 assay, 72-h incubation; read-out: Cell Lines IC50 SKOV3. Format: cell-based, human. As for the experimental part:
as §1
The viability of cells as determined using the CCK8 assay method. Cells were seeded (2000–3000 cells per well) in 96-well plates. After incubation for 24 h in serum-containing media, the cells were treated with drugs at different concentrations diluted with culture medium for 72 h at 37 °C with a 5% CO2 atmosphere. Then, 10 μL CCK8 regent (Promega, WI) was added to each well, and the plates were incubated for 1–4 h at 37 °C. Finally, absorbance values of test wells (AS), control wells (AC) and blank wells (Ab) at 450 nm were read using the Microplate Reader (Promega, WI). Inhibition ratios were calculated as follows: [(AC − AS)/ (AC−Ab)] × 100%. IC50 values were calculated using GraphPad software.

Another assay has as its target T1, FLT4 (VEGFR3) (Homo sapiens, UniProt P35916).
T1 construct: purchased Eurofins (KinaseProfiler service)
In words: Kinase inhibition assay (Eurofins KinaseProfiler). The note with it: ATP at Km. Format: biochemical. As for the experimental part: (§3) Kinase inhibition profiles were determined using KinaseProfiler services provided by Eurofins, and ATP concentrations used are the Km of corresponding kinases.
(§4) Flt1 (h) was incubated with 8 mM MOPS pH 7.0, 0.2 mM EDTA, 250 uM KKKSPGEYVNIEFG, 10 mM MgAcetate and [g- 33P]-ATP; Flt3 (h) [Abl (h)] was incubated with 8 mM MOPS pH 7.0, 0.2 mM EDTA, 50 uM EAIYAAPFAKKK, 10 mM MgAcetate and [gamma-33P]- ATP; Flt4 (h) was incubated with 8 mM MOPS pH 7.0, 0.2 mM EDTA, 500 uM GGEEEEYFELVKKKK, 10 mM MgAcetate and [gamma-33P]-ATP.
(§5) All the reactions above were initiated by the addition of the Mg/ATP mix. After incubation for 40 min at room temperature, the reaction was stopped by the addition of phosphoric acid to a concentration of 0.5%. An amount of 10 µL of the reaction was then spotted onto a P30 filtermat and washed four times for 4 min in 0.425% phosphoric acid and once in methanol prior to drying and scintillation counting.

In the next assay the target is T2, FLT3(h) (Homo sapiens, UniProt P36888).
T2 construct: purchased Eurofins (KinaseProfiler service)
T2 sequence (P36888 27-993): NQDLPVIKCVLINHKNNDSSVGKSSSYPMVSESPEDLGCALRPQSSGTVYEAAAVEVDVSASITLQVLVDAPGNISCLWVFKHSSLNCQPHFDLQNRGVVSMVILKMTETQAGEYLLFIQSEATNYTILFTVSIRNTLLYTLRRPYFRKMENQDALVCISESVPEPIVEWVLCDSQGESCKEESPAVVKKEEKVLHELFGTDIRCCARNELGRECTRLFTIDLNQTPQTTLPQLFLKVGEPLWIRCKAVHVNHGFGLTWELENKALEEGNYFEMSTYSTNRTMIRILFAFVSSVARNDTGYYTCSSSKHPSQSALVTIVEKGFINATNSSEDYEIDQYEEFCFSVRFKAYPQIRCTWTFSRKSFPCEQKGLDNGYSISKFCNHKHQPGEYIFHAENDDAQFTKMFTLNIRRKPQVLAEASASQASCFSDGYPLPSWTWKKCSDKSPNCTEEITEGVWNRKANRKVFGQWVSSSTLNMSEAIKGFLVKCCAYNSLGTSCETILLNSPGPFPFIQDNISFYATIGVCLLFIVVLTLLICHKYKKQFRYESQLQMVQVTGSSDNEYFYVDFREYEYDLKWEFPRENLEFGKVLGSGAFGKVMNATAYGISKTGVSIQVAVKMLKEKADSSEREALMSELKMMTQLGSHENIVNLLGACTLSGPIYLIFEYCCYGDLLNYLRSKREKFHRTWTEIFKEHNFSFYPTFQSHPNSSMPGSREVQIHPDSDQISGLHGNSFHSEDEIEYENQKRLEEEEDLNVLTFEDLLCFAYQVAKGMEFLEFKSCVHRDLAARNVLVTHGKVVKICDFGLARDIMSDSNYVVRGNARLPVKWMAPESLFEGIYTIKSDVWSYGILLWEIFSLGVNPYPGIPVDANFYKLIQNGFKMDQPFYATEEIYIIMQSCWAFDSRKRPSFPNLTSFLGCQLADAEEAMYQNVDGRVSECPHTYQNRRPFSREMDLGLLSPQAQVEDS
Put plainly: Kinase inhibition assay (Eurofins KinaseProfiler). Format: biochemical. The note with it: ATP at Km. The protocol: as §3, §4, §5

For the next assay, the target named is T3, Abl(h) (Homo sapiens, UniProt P00519).
T3 construct: purchased Eurofins (KinaseProfiler service)
T3 sequence (P00519 whole entry): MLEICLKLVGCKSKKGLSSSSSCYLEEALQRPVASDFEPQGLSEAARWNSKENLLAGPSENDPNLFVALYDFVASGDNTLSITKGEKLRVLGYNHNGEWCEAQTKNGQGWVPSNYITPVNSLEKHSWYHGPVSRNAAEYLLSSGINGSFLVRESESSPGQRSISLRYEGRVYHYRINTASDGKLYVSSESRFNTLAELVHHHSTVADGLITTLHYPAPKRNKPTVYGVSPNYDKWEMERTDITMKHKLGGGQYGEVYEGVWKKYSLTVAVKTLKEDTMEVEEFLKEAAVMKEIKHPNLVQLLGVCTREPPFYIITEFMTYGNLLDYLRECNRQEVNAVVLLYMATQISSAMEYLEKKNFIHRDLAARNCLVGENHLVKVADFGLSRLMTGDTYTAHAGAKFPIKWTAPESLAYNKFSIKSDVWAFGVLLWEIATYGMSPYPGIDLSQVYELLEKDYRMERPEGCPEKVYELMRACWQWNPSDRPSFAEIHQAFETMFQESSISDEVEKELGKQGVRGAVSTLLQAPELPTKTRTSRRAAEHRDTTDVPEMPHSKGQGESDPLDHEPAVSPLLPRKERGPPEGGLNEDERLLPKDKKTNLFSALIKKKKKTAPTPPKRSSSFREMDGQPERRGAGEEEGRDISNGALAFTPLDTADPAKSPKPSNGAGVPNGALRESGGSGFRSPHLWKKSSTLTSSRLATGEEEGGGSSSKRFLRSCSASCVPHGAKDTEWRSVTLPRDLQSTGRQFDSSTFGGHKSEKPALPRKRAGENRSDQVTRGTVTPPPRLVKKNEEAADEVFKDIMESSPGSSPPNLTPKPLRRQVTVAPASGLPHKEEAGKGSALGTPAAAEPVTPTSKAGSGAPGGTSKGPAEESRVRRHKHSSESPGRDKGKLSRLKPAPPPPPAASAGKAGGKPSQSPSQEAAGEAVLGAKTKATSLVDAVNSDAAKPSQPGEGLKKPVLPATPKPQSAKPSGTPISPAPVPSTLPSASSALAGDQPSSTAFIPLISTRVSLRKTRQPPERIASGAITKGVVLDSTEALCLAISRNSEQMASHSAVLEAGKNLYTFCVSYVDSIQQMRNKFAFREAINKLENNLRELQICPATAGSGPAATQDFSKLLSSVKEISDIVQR
Put plainly: Kinase inhibition assay (Eurofins KinaseProfiler). Format: biochemical. The note with it: ATP at Km. As for the experimental part: as §3, §4, §5

For the next assay, the target named is T4, FLT1 (VEGFR1) (Homo sapiens, UniProt P17948).
T4 construct: purchased Eurofins (KinaseProfiler service)
T4 sequence (P17948 27-1338): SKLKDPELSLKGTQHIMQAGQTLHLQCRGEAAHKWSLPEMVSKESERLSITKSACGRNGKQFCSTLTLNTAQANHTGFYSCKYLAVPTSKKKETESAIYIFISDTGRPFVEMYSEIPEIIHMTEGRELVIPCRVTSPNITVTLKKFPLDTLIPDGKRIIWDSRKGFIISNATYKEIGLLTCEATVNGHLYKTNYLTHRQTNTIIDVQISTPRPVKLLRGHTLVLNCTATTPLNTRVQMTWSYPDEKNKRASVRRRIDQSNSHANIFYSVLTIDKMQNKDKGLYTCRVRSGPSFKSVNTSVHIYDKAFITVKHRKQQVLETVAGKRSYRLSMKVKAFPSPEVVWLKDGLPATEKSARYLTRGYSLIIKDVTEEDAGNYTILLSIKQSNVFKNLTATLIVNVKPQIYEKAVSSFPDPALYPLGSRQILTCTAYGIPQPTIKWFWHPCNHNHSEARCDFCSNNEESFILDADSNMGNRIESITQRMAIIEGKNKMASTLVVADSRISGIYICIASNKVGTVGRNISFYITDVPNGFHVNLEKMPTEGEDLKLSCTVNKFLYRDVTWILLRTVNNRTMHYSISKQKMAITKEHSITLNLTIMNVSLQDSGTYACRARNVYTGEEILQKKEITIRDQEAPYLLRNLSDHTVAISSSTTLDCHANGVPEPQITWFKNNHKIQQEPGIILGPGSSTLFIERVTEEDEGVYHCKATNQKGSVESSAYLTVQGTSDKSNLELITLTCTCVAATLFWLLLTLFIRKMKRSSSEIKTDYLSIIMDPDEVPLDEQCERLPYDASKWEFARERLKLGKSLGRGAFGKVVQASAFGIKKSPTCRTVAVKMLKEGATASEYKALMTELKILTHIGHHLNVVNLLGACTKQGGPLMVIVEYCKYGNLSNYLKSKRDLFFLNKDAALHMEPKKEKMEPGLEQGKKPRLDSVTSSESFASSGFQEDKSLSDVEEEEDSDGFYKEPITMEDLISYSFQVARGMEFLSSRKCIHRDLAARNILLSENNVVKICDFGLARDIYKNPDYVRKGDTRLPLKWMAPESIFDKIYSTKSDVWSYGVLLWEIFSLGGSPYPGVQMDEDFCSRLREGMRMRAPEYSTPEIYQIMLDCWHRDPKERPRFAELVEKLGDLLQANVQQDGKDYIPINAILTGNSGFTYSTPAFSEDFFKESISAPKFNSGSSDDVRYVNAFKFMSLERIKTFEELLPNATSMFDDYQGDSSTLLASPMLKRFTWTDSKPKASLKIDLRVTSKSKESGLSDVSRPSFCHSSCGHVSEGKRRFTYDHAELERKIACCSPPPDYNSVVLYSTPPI
In words: Kinase inhibition assay (Eurofins KinaseProfiler). The format is biochemical. The conditions noted are these: ATP at Km. The protocol:
as §3, §4, §5

A further assay deals with SiHa cells. Put plainly: Colony formation assay, SiHa. Format: cell-based, human. The source says: Colony formation assay assesses the effect of a therapy on clonogenic survival which is one of the most important parameters of therapy efficacy in oncology. […] We also performed colony formation assay in SKOV3 cells at concentrations according to IC50 values to confirm the result (Figure S3).
Cells treated with indicated compounds or vehicle were washed with PBS, trypsinized, and reseeded into 6-well plates at 500–1000 cells per well. The colonies were allowed to form for 10–15 days. At the end of the culture, cells were washed with PBS, fixed with methanol for 30 min, then stained with 0.5% crystal violet overnight. After careful washing, the images were taken.

Another assay concerns A549. In words: CCK-8 cell growth inhibition, A549. The format is cell-based, human. The note with it: Homo sapiens, A549; lung cancer; CCK-8 assay, 72-h incubation. The protocol: as §1, §2

We go through one molecule from publication PMC7664879, “Discovery of 12O—A Novel Oral Multi-Kinase Inhibitor for the Treatment of Solid Tumor” (Molecules, 2020).

T1 sequence (P35916 25-1363): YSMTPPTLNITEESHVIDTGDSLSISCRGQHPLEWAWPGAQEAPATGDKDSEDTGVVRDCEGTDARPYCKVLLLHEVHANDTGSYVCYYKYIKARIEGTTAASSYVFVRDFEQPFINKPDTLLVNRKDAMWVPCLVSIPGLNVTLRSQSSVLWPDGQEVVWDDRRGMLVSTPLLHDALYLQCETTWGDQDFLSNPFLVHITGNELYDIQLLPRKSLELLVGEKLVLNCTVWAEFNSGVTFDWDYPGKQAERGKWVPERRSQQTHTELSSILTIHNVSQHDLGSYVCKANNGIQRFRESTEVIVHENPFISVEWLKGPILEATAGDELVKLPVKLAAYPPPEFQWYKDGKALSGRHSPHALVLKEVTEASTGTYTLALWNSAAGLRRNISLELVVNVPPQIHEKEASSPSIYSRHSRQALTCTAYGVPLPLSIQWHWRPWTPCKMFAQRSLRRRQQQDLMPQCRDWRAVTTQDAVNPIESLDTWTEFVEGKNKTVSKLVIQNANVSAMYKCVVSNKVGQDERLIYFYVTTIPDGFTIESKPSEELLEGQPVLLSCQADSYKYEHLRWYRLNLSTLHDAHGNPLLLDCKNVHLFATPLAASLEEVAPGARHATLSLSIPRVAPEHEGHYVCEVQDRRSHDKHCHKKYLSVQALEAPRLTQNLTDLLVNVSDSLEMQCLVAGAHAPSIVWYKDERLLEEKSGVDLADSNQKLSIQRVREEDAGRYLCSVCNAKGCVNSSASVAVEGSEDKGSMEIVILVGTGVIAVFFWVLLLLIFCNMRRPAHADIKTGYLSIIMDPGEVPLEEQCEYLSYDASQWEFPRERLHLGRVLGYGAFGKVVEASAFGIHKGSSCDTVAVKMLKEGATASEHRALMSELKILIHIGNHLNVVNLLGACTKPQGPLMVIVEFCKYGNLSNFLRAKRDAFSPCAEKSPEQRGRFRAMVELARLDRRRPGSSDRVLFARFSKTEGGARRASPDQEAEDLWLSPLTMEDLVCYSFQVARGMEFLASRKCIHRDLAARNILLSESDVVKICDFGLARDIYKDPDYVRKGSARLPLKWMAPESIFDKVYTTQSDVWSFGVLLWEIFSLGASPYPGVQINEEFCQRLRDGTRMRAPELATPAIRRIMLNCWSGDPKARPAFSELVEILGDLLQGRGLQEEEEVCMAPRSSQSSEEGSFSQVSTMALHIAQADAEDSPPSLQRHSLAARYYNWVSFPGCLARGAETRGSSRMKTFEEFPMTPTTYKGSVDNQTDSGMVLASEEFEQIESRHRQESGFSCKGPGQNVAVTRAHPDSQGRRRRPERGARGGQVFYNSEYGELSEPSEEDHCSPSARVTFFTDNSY

For the molecule `CC(C)n1nnc2ccc(-c3nc(Nc4ccc(CNC(=O)C5(C(=O)Nc6ccccc6)CC5)cc4)ncc3F)cc21` [12O], the half-inhibitory concentration (IC50) – broadly, the concentration that gives 50% inhibition – came out at 68 nM in the assay with 4T1; 52 nM with OVCAR-5; 29 nM in the assay with SKOV3; 68 nM against FLT4 (VEGFR3); 24 nM at FLT3(h); 35 nM with A549. Besides, the inhibition (usually the percentage by which the read-out fell short of the control) at 1 µM on FLT4 (VEGFR3) (1 µM) stood at 95%; at FLT3(h) (1 µM) it was 98%; on Abl(h), 31%; against FLT1 (VEGFR1), 50%. Further, the formation of colonies entry in the assay on SiHa cells was “dose-dependently decreased”.
